The values that follow are results of earlier work, collected in PMC6591635, “Advancing the Therapeutic Potential of Indoleamides for Tuberculosis” (Antimicrobial Agents and Chemotherapy, 2019).

Converted amounts (≈) assume the structure as drawn.

The test system of this data set is M. tuberculosis H37Rv. The following applies: M. tuberculosis H37Rv; concentration used as 1× MIC; cited from earlier work.

As to `Cc1cc(C)c2cc(C(=O)NC3CCCCCCC3)[nH]c2c1` [compound 1], the “MIC (1× MIC)” value was 4 ng/mL (≈ 0.0134 µM).
